These results are taken from patent US20120071522A1, “THERMAL STABILIZATION OF BIOCIDES IN MATRIX COMPOSITIONS PROCESSED AT ELEVATED TEMPERATURES” (priority 2004, published 2012).

The data set in a line: Thermal stability (color change) of biocide in polyethylene and wood-plastic composite matrixes processed at elevated temperatures. The class given is physicochemical.

Molecules are shown by their SMILES.

For the compound `CCCCNC(=O)OCC#CI` [IPBC], the color change entry was “no color change”.

On to `O=C1c2ccccc2C(=O)N1SC(Cl)(Cl)Cl` [Fungitrol® 11, N-(trichloromethylthio) phthalimide], for which the color change result was “no color change”.
